{
  "source": "paper PMC6940745",
  "about": "(International Journal of Molecular Sciences, 2019)",
  "key": {"MC3R": {"target": "T1, MC3R (Homo sapiens, UniProt P41968)", "T1 construct": "host or cells: CHO-K1", "T1 sequence (P41968 whole entry)": "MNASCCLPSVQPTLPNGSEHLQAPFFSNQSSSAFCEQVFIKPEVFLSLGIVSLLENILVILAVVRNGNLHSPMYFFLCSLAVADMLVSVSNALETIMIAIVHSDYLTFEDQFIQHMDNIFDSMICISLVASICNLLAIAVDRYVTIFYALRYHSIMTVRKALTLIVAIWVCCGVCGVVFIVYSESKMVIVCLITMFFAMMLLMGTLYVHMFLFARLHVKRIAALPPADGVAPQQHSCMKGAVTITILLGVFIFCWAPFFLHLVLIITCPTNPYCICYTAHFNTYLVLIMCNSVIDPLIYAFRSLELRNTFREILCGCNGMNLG", "test": "MC3R activation, cAMP HTRF assay in CHO-K1 cells", "format": "cell-based", "conditions": "eight concentrations, 0.01 to 100,000 nM", "procedure": "MCR-activation assays were performed by means of a cAMP HTRF (homogeneous time resolved fluorescence) assay for Gs-coupled receptors (cAMP Gs dynamic kit, Cisbio bioassays, 62AM4PEC). CHO-K1 cells expressing human recombinant MC1 receptor (EuroscreenFast, Gosselies, Belgium) (or MC2R, MC3R, MC4R, MC5R) were grown prior to the test in media without antibiotic. They were detached by gentle flushing with PBS-EDTA (5 mM EDTA), recovered by centrifugation, and resuspended in assay buffer (5 mM KCl, 1.25 mM MgSO4, 124 mM NaCl, 25 mM HEPES, 13.3 mM Glucose, 1.25 mM KH2PO4, 1.45 mM CaCl2, 0.5 g/L BSA, supplemented with 1 mM IBMX). Dose response curves were performed in parallel with the reference compounds. For agonist test (96-well), 12 µL of cells were mixed with 12 µL of the test compound diluted at increasing concentrations in assay buffer, and then incubated for 30 min at room temperature. After addition of the lysis buffer and 1 h incubation, fluorescence signal was measured, according to the manufacturer’s specifications, with the homogeneous time resolved fluorescence (HTRF) kit."}, "OP1R": {"target": "T2, OP1R (Homo sapiens, UniProt P41143)", "T2 construct": "host or cells: CHO-K1 (membrane preparations)", "T2 sequence (P41143 whole entry)": "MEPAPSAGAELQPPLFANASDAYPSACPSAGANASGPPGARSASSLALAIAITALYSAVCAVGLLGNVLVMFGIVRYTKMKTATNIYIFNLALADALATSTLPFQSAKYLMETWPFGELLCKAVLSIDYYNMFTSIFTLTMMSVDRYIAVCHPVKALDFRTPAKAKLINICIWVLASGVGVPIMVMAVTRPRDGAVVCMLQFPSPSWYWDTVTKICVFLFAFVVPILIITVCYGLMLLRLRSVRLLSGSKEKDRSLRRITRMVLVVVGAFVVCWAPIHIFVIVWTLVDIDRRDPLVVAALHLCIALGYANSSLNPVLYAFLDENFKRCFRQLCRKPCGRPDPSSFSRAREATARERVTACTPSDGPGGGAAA", "test": "OP1R (delta opioid) activation, GTPγS scintillation proximity assay", "format": "biochemical", "conditions": "eight concentrations, 0.01 to 100,000 nM", "procedure": "Melatonin (MT1R and MT2R) and opioid receptor (OP1R, OP2R, and OP3R, corresponding to human delta, kappa, and mu opioid receptors) activation assays were performed by means of GTPγS scintillation proximity assays. For agonist testing, membrane preparations from CHO-K1 cells expressing each receptor (EuroscreenFast, Gosselies, Belgium) were mixed with guanosine diphosphate (GDP) (v/v). In parallel, GTPγ[^35S] (PerkinElmer, NEG030X, 0.1 nM final assay concentration) was mixed with PVT-WGA beads (Perkin Elmer, RPNQ001, 0.5 mg/well final assay density) (v/v) just before starting the reaction. The following reagents were then successively added in the wells of an Optiplate (Perkin Elmer): A total of 50 µL of test or reference ligand diluted in assay buffer, 10 µL of assay buffer (20 mM HEPES pH 7.4; 100–200 mM NaCl, 10 µg/mL saponin, MgCl2 at optimized concentration for the specific receptor, 0%–0.1% BSA), 20 µL of the membranes: GDP mix, and 20 µL of the GTPγ[^35S]: Beads mix. The plates were covered with a top seal, mixed on an orbital shaker for 2 min, and then incubated for 1 h at room temperature. Then the plates were centrifuged for 10 min at 2000 rpm, incubated at room temperature for 1 h, and counted for 1 min/well with a PerkinElmer TopCount™ reader."}, "[1]": {"tested_on": "human abdominal skin ex vivo", "test": "Stimulation of pigmentation in human abdominal skin ex vivo (Fontana-Masson melanin quantification)", "format": "cell-based", "conditions": "topical", "procedure": "(§1) Following declaration of Helsinki principles (DoH-Oct2013, World Medical Association, Ferney-Voltaire, France), human skin samples were obtained from elective plastic surgery after informed consent was obtained. For the two experiments shown in Figure 2, Figure 3 and Figure 4, we had one person with an individual topology angle (ITA°) of 18, and one person with an ITA° of 39 [69]. The skin samples were cut in pieces of 8 × 3 mm and cultured up to day 6. Skin samples were cultured in an air–liquid interface in a perforated ring of stainless steel in contact with culture medium (modified Williams’ E medium). The culture medium was renewed every three days (i.e., day 0–3). Compounds were added daily in DMSO at 4 µL volume. At day 6, the skin samples were fixed in formalin, embedded in paraplast, and cut at the microtome for histochemical staining and consequent image analysis. Six skin biopsies were used for each single treatment.\nTwo skin biopsies for each treatment were weighed and, in each case, reduced in the dermal portion, in order to have approximately the same weight for all of them. Samples were then washed and processed with methylthiazolyldiphenyl-tetrazolium bromide (MTT). The color intensity, that is directly proportional to skin vitality, was measured with a plate reader at a wavelength of 570 nm. For melanin quantification, skin sections were stained with a modified Fontana-Masson stain that dyes melanin argentaffin granules in black/dark grey. The amount of melanin present in each slide was evaluated by estimating grey intensity and distribution within the sections using ImageJ application (NIH-USA). Two slides of each skin sample were processed by image acquisition and related analysis (i.e., 12 images for each treatment).\nFigure 2 Stimulation of pigmentation by MC1R-agonist peptides ex vivo. Melanin was quantified on skin sections using ImageJ software (NIH, USA). Human abdominal skin was topically treated with peptides at various concentrations for six days. * p < 0.05 vs vehicle by unpaired Student’s t-test. […]"}, "TYR": {"tested_on": "TYR", "test": "TYR protein expression in human skin ex vivo (immunohistochemistry)", "format": "cell-based", "conditions": "topical 30, 100 and 200 µM, six days; p = 0.06", "procedure": "as §1\nTwelve skin sections from the ex vivo melanogenesis experiment above were immunoassayed with the selected antibodies (TYR, Thermo Scientific #MS-800-P0 (Thermo Scientific, Waltham, MA, USA); TYRP-1, Covance #SIG-38150 (Covance Inc., Princeton, NJ, USA), MITF, Abcam #ab80651 (Abcam plc, Cambridge, UK). The number of positive cells within the epidermis was counted and the value was normalized upon the length of the basal lamina, thus obtaining a score. […]"}, "MC1R": {"tested_on": "MC1R", "test": "MC1R expression in ex vivo epidermis in the presence of UVA", "format": "cell-based, human", "conditions": "ex vivo epidermis in the presence of UVA (Figure S1)"}},
  "note": "Where a SMILES comes first, the peptide text is derived from it. [ ]: non-standard residue; d: D form. The star is where a group is joined. Bz = O=C(c1ccccc1)*; NPr2 = CCCN(CCC)*",
  "data": [
    {"smiles": "CCCN(CCC)C(=O)[C@@H](Cc1c[nH]c2ccccc12)NC(=O)[C@H](CCCNC(=N)N)NC(=O)[C@@H](Cc1ccccc1)NC(=O)[C@H](Cc1c[nH]cn1)NC(=O)CNC(=O)c1ccccc1", "note": "[Peptide 4] (Bz-GH[dF]R[dW]-NPr2)", "values": [
      {"measurement": "EC50", "setting": "MC3R", "result": 877, "unit": "nM"},
      {"measurement": "EC50", "setting": "OP1R", "result": "> 100000", "unit": "nM"},
      {"measurement": "Stimulation of pigmentation compared to vehicle-treated control tissue", "setting": "[1]; 200 µM peptide, six days", "result": "up to 21%"},
      {"measurement": "Concentration of optimal activity for pigmentation enhancement", "setting": "[1]; human abdominal skin ex vivo", "result": 30, "unit": "µM"},
      {"measurement": "Maximal induction of TYR protein expression vs vehicle", "setting": "TYR", "result": 44, "unit": "%"},
      {"measurement": "Influence on expression of MC1R", "setting": "MC1R", "result": "no influence"}
    ]}
  ]
}
